Source: patent US20260345584A1, “METHODS AND PHARMACEUTICAL COMPOSITIONS FOR TREATING CHEMOTHERAPY-INDUCED PERIPHERAL NEUROPATHY WITH EG5 INHIBITORS” (UNIVERSITY OF MIAMI, priority 2023, published 2026)

Legend:
axonal microtubules = assay: Axonal detyrosination (GluTub) along axon segments in distal caudal fin; format: in vivo, zebrafish; conditions: EMD534085 alone, wildtype, 96 hr
Method: Larval fish were transferred into […] glass vials and fixed in 4% paraformaldehyde (PFA)/1× Phosphate-buffered saline (PBS) for 1.5 hr at room temperature, with gentle rocking. Following a 5-minute incubation in 1×PBS+0.1% Tween-20 (PBST), zebrafish were permeabilized in 1×PBS+0.1% Triton X-100 for 10-30 min. Larval fish were transferred into 2 ml reaction tubes and incubated in blocking buffer (1×PBST+5% BSA) for 30 min at room temperature, with rocking. Larval fish were further incubated overnight in antibody solution (Millipore Sigma, Cat. No. AB3201, 1:300 rabbit anti-GluTub; Sigma, Cat No. T6793, 1:500 mouse anti-acetylated tubulin) in blocking buffer at 4 °C, on a rotator. The next morning, larval fish were transferred into 6-well plates and washed 4×15 min in 1×PBST at room temperature, with rocking. […]
Axon branch number quantifications were performed by drawing a 50 μm line across the dorsal, medial, and ventral caudal fin edge region at a distance of 100 μm parallel to the fin edge (which was determined to be the most reliable region to quantify distal branch numbers). Axons traversing this line were counted and averaged per treatment group. Axonal fluorescence measurements were taken using the Imaris Spots function by manually placing spots along the axon and using the fluorescence intensity profile measurements MatLab tool.

[1] = test system: Tau-Bfp2 microtubules in keratinocytes; assay: Tau-Bfp2-stabilized microtubules in keratinocytes; format: in vivo, zebrafish; conditions: 96 hr
Method: Fish were anesthetized in 2-phenoxyethanol (1:1000) in Ringer's solution prior to imaging and mounted in 1.2% agarose. EB3-GFP and Tau-Bfp2 were imaged with a scan speed kept at the maximum level in single slice mode with […] for a total of 60s to capture microtubule dynamics. h2a:H2A-GFP time-lapse recordings were produced (Zeiss LSM880 AiryScan confocal microscope) with 1 μm sections recorded every 10 min for 12 hr using 800×800 pixels. All other live fish were imaged using 1024×1024 pixels.
Microtubule analyses was performed in Imaris 9.5.1 (Bitplane) by measuring the straightness of filaments (microtubules) using the “Filaments—Dendrite Straightness” tool, which was defined as the ratio between […] between two branch points (h). The value was always smaller than 1 since the Dendrite Straightness of 1 defines straight objects.
EB3-GFP tracking was done in Fiji using the MTrackJ plugin to trace microtubules over time and create Kymographs, measure the velocity, track length, and comet duration. Tracking was also performed using the Spots and Surface tools in Imaris. Settings were initially automatically detected to fit the fluorescence and subsequently modified manually for improved fit. Settings were maintained between treatment groups.
Tau therefore seems to prevent paclitaxel-induced dfMT formation.
Thus EB3-GFP plus-ends appeared in part to grow along pre-existing stable microtubules, which could be a means to maintain cellular organization.

dfMTs in keratinocytes = assay: dfMT fascicle width; format: in vivo, zebrafish; conditions: 96 hr
Method: The stock solution was divided into 20-30 μl aliquots and stored at −20 °C until use (maximal 6 months). Immediately prior to use, paclitaxel was diluted in Ringer's solution and added to dechorionated larval zebrafish. The larval fish were placed individually or in small groups into wells of a 12-well plate containing the treatment solutions. The control group was 0.05% DMSO. Plates were incubated at 28.5 °C and protected from light. Treatment lengths are indicated in the Drawings, Description of the Drawings, and Examples where appropriate. […] EMD534085, Eg5 inhibitor (MedChemExpress, Cat. No. HY-15000) was diluted in 100% DMSO to make a 10 mM stock solution and stored at −20 °C. […] The solutions were exchanged every 48 hr.
Larval fish were transferred into […] glass vials and fixed in 4% paraformaldehyde (PFA)/1× Phosphate-buffered saline (PBS) for 1.5 hr at room temperature, with gentle rocking. Following a 5-minute incubation in 1×PBS+0.1% Tween-20 (PBST), zebrafish were permeabilized in 1×PBS+0.1% Triton X-100 for 10-30 min. Larval fish were transferred into 2 ml reaction tubes and incubated in blocking buffer (1×PBST+5% BSA) for 30 min at room temperature, with rocking. […]
dfMT thicknesses (defined as the mean width of a given dfMT) was manually measured at high magnification using the Slice mode in Imaris and the Line tool for measuring the distance between two points. […]

peripheral neuropathy = assay: von Frey behavioral testing; format: in vivo, mouse; conditions: mice, 2 mg/kg paclitaxel i.p. x4
From the text: Molecular mechanisms underlying paclitaxel-induced microtubule fasciculation were then investigated. […] Peripheral neuropathy was correlated with these times points using von Frey behavioral testing, which determined that peak neuropathy was present at day 7 (D7). This identified several biological categories during peak neuropathy with the largest clusters being implicated in extracellular matrix organization (e.g. “ECM”, “collagen-containing ECM”, “collagen trimer”) and cell cycle regulation (e.g. “outer kinetochore”, “kinesin complex”, condensed chromosome, centromeric region”, “mitotic spindle”, “microtubules”), consistent with our findings in zebrafish. Interactome analysis using STRING (Szklarczyk et al., 2021, Nucl. Acids Res 49: D605-D612) to predict protein association networks further identified major clusters involved in cell cycle regulation, which contained various kinesins, microtubule and nucleus regulators, as well as one cluster annotated as “disulfide bond”, consistent with a role for oxidative signal activation (Leonard et al., 2011, Current opinion in chemical biology 15: 88-102) (shown in FIG. 3D).

| day of peak neuropathy (peripheral neuropathy) | Structure (SMILES) | normalized GluTub intensity ratios (axon) (axonal microtubules) | EB3-GFP puncta co-localized with Tau-Bfp2 ([1]; Tau-Bfp2 + 22 μM paclitaxel) | velocity of EB3-GFP plus-ends ([1]; Tau-Bfp2 + paclitaxel) | microtubule straightness (1=straight, 0=curved) ([1]; strong Tau-Bfp2 + paclitaxel) | fascicle width of dMTs (dfMTs in keratinocytes; 100 nM paclitaxel) | fascicle width of dMTs (dfMTs in keratinocytes; 22 μM paclitaxel) |
| --- | --- | --- | --- | --- | --- | --- | --- |
|  | CN(C)CCNC(=O)NC[C@H]1CC[C@@H]2[C@H](O1)c1cc(C(F)(F)F)ccc1N[C@H]2c1ccccc1 [EMD534085] | 2.13±0.13 |  |  |  |  |  |
| 7 days | CC(=O)O[C@H]1C(=O)[C@@]2(C)[C@H]([C@H](OC(=O)c3ccccc3)[C@]3(O)C[C@H](OC(=O)[C@H](O)[C@@H](NC(=O)c4ccccc4)c4ccccc4)C(C)=C1C3(C)C)[C@]1(OC(C)=O)CO[C@@H]1C[C@@H]2O [paclitaxel] |  | 91.26±1.64% | 0.184±0.003 μm/s | 0.98±0.002 | 6.0±0.49 μm | 3.4±0.17 μm |
